Columns and labels:
[1] = test system: primary normal human epidermal keratinocytes (NHEKs) stimulated with TNF/IFNγ or TNF/IL-4; test: RT-qPCR of AD-related gene expression in cytokine-stimulated primary human keratinocytes; format: cell-based; conditions: 5 μM, 24 hours
Protocol: (§1) Primary normal human epidermal keratinocytes (NHEKs) were isolated from nine healthy donors as described previously.^13 The keratinocytes were plated in 6-well plates and cultured in keratinocyte SFM (Gibco, ThermoFisher Scientific, Waltham, MA, USA) supplemented with growth factors and 5 μg/ml Gentamicin (Gibco) at 37° C. in a humidified incubator containing 5% CO2 until 60-70% confluency. Subsequently, the keratinocytes were starved for 24 hours in keratinocyte SFM medium without growth factors before the initiation of experiments.
Keratinocytes were washed with phosphate-buffered saline (PBS; Gibco) followed by RNA extraction using SV 96 Total RNA Isolation System (Promega, Madison, WI, USA) per the manufacturers' instructions. NanoDrop 2000 Spectrophotometer (ThermoFisher) was used to determine the RNA concentration and purity.
cDNA was generated using total RNA, TaqMan Reverse Transcription Reagents with random hexamers (ThermoFisher) and Peltier Thermal Cycler-200 (MJ Research Inc, Waltham, MA, USA) following the manufacturer's instructions. […]
The statistical significance threshold was set at P<0.05. Differences between treatment groups in clinical endpoints, mRNA (qPCR) and protein levels (western blot) were analysed by unpaired t-tests for mice and paired t-tests for keratinocytes. […]

[2] = test system: STAT3; test: Western blot of STAT3 phosphorylation in stimulated NHEKs; format: cell-based, human; conditions: 5 μM, TNF/IFNγ or TNF/IL-4 stimulation, 1 hour
Protocol: as §1
(§2) PBS-washed keratinocytes were added cell lysis buffer with complete Protease Inhibitor Cocktail and phenylmethylsulphonyl fluoride (Sigma-Aldrich). […] The protein concentration was determined by Bradford Protein Assay.
(§3) A total of 20 μg protein extract for each sample was loaded on 10% mini-PROTEAN TGX PreCast Gel (Bio-Rad, Hercules, CA, USA) and separated by gel electrophoresis using Mini Trans-Blot Cell (Bio-Rad). […] Protein bands were detected with an enhanced chemiluminescence (ECL) reaction using Clarity Western ECL Substrate (Bio-Rad) and digitally imaged with C-DiGit Blot Scanner (LI-COR, Lincoln, NE, USA). To normalize the protein expression to β-actin levels, the membranes were stripped and reprobed with an anti-β-actin antibody (A1978; Sigma-Aldrich), which was detected by HRP-conjugated anti-mouse IgG (p0447; Dako, Glostrup, Denmark). […]

[3] = test system: STAT6; test: Western blot of STAT6 phosphorylation in stimulated NHEKs; format: cell-based, human; conditions: 5 μM, TNF/IL-4 stimulation, 1 hour
Protocol: as §1, §2, §3

[4] = test system: STAT1; test: Western blot of STAT1 phosphorylation in stimulated NHEKs; format: cell-based, human; conditions: 5 μM, 1 hour
Protocol: as §1, §2, §3

[5] = test system: p65 (subunit of NF-κB); test: Western blot of p65 phosphorylation in stimulated NHEKs; format: cell-based, human; conditions: 5 μM, 1 hour
Protocol: as §1, §2, §3

[6] = test system: MC903-induced AD-like skin inflammation; test: MC903-induced atopic dermatitis mouse model; format: in vivo, Female Balb/cAnNRj mice; conditions: for body weight loss: topical treatment, MC903 model
Protocol: Punch biopsies were stored in 750 μL RNAlater-ICE (ThermoFisher) at −80° C. for 20 minutes and overnight at −20° C. Then, the biopsies were added to 175 μL SV RNA lysis buffer with β-mercaptoethanol (SV Total RNA Isolation System; Promega) followed by homogenization using TissueLyser (Qiagen, Hilden, Germany). The remaining steps including RNA purification and DNase treatment were conducted following the manufacturer's instructions.
cDNA was generated using total RNA, TaqMan Reverse Transcription Reagents with random hexamers (ThermoFisher) and Peltier Thermal Cycler-200 (MJ Research Inc, Waltham, MA, USA) following the manufacturer's instructions. Real-time PCR was carried out with 20 ng cDNA per 20 μL reaction in StepOnePlus Real-Time PCR system (ThemoFisher) using TaqMan Universal PCR Master Mix, primers and probes (ThermoFisher) for TNF (Hs00174128_m1), ILIB (Hs01555410_m1), IL6 (Hs00174131_m1), TSLP (Hs00263639_m1), CCL17 (Hs00171074_m1), CCL22 (Hs01574247_m1), Il1b (Mm00434228_m1), Il4 (Mm00445259_m1), Il6 (Mm00446190_m1), Il13 (Mm00434204_m1) RPLPO (Hs99999902_m1) and Gapdh (Mm99999915_m1). Three technical replicates for each sample underwent real-time PCR; 2 minutes at 50° C. and 10 minutes at 95° C. followed by 40 cycles of 15 seconds at 95° C. and 1 minute at 60° C. The standard curve method with StepOne Software v2.1 and reference genes (RPLPO and Gapdh) were used to obtain normalised relative expression levels of target genes.^17
Female Balb/cAnNRj (8 weeks old) mice were purchased from Janvier Labs (Le Genest-Saint-Isle, France), and housed in animal facilities at 19-25° C. with 12-hour light/dark cycles and free access to laboratory rodent diet and water. The mice had at least 1 week acclimation period before the experiments started.
Mice were randomly divided to receive: vehicle and drug-vehicle (negative control); MC903 (MedChemExpress, Monmouth Junction, NJ, USA) and drug-vehicle (disease control); MC903 and topical or oral Compound I (Compound I treatment groups); or MC903 and topical dexamethasone (positive control; purchased from Sigma-Aldrich). Four to eight mice were allocated to each group, totalling 76 mice for all experiments.
To induce AD-like skin inflammation, 1 or 2.5 nmol of MC903 in 25 μL absolute ethanol was topically applied once daily to the ventral and dorsal surface of the right ear for six consecutive days. After MC903 challenge, the mice were treated with topical Compound I (1 mg in 25 μL ethanol), oral Compound I (100 mg/kg), topical dexamethasone (20 nmol in 25 μl ethanol), or drug-vehicle (topical ethanol or oral 5% kleptose [HPB, Roquette Pharma, Lestrem, France]). The topical treatments were applied 2 hours post-MC903 challenge, whereas the oral treatments were administered by oral gavage immediately post-MC903 challenge. At the end of the experiment on day 9, clinical photos of the ears were taken and the mice were euthanised by cervical dislocation. Two punch biopsies (4 mm) from the ear were collected for RNA isolation and histological assessment. Ear thickness, the primary clinical endpoint for inflammation, was measured daily with a digital calliper (Mitutoyo Corporation, Kawasaki, Japan), and body weight was measured throughout the study to monitor the welfare of mice. During the experimental procedures, the mice were anesthetized with 2% isoflurane.
Four-millimetres punch biopsies from the ear were fixed in 4% formaldehyde overnight at 4° C., paraffin-embedded, and serially sliced into 4 μm sections subjected to staining procedures. For haematoxylin & eosin (HE) staining, a standard protocol was followed. To detect mast cells, sections were stained with 0.1% toluidine blue solution (Sigma-Aldrich) at pH 2.3 and room temperature for 3 minutes. […]

[7] = test system: AD-like inflammation; test: MC903 model at independent testing facility (alternative MC903 regimen); format: in vivo, BALB/c mice; conditions: oral 20, 50 and 100 mg/kg
Protocol: To evaluate the feasibility of orally administered Compound I, mice were challenged with 2.5 nmol MC903 for six days and administered 100 mg/kg Compound I by oral gavage once daily throughout the experiment.

[8] = Skin concentration in punch biopsies of hidradenitis suppurativa subjects, week 16; format: in vivo, human; conditions: oral dosing at 250 mg; skin (16 weeks daily) vs plasma (single dose)
Excerpt: A 16-week treatment, randomized, double-blind, proof-of-concept study was designed to assess the safety and efficacy of Compound I compared to placebo in treating hidradenitis suppurativa. Eligible subjects completed an up-to 4-week screening phase and sequentially be randomized 2:1 to one of two cohorts, treatment cohort (n=10) or placebo-control cohort (n=5), in a 16-week treatment phase followed by a 4-week observational follow-up phase. In the 16-week treatment phase, subjects randomized to the treatment group receive 250 mg Compound I free base in the form of a tablet administered orally once daily. The 250 mg dose was selected based on the results of an earlier oncology trial conducted with doses in excess of 1000 mg/day as a safe minimal dose from which to conduct dose escalation if required. Subjects randomized to the placebo-control group receive placebo treatment once daily (microcrystalline cellulose, mannitol, crospovidone, Opadry II red, magnesium stearate, colloidal silicon dioxide).
The accumulation of Compound I in the skin of human hidradenitis suppurativa of subjects in the treatment cohort was determined. […] FIG. 7 is a graph showing the concentrations of Compound I found in the biopsied tissues in subjects grouped according to their clinical response to Compound I therapy. […]

[9] = Plasma pharmacokinetics after single oral dose in healthy male subjects; format: in vivo, human; conditions: single oral dose 250 mg, read-out: Cmax (median)
Protocol: The skin accumulation found in this study was compared to plasma levels of Compound I determined in a previous study in healthy human volunteers. Six healthy male subjects were given a single oral dose of 250 mg Compound I, and plasma samples were collected pre-dose and at 0.25, 0.5, 0.75, 1, 1.5, 2, 2.5, 3, 4, 6, 8, 10, 12, 18, 24, 30, 36, 48, 72 and 96 hours after dosing.

[10] = test system: stimulated NHEKs; conditions: previous concentration studies; used concentration 5 μM; cited from earlier work
[11] = psoriasis and hidradenitis suppurativa patients; cited from earlier work
[12] = topical, 1 nmol MC903, ear biopsies

CN(C)c1cc2c(cc1Sc1nc3c(N)nccc3n1CCNCC(C)(C)C)OCO2 [Compound I]
expression of AD-associated cytokines (TNF, IL1B, IL6) and chemokines (CCL17, CCL22) ([1]; TNF/IFNγ or TNF/IL-4 stimulation, vs stimulated/vehicle- and stimulated/dexamethasone-treated NHEKs): robustly inhibited the expression
expression of TSLP ([1]; stimulated NHEKs): suppressed
phosphorylation of STAT3 [2]: significantly suppressed
reduction of phosphorylation of STAT6 [3]: ~ 20%
phosphorylation of STAT1 [4]: no significant effects
phosphorylation of p65 [5]: no significant effects
erythema ([6]; oral 100 mg/kg, 2.5 nmol MC903): visibly reduced erythema
reduction of ear thickening compared with drug-vehicle ([6]; oral gavage 100 mg/kg once daily, 2.5 nmol MC903): 28%
reduction in ear thickness compared with drug-vehicle ([6]; topical 1 mg once daily, 1 nmol MC903, day 9): 55%
suppression of MC903-induced ear thickening ([6]; topical 1 mg once daily, 2.5 nmol MC903, day 9): 50%
body weight loss [6]: significantly less weight loss compared with dexamethasone
cytokine expression of Il1b, Il4, Il6 and Il13 in ear tissue compared with drug-vehicle ([6]; topical, 1 nmol MC903, RNA sequencing and qPCR): significantly reduced
erythema ([6]; topical, 1 nmol MC903, day 9): visibly reduced erythema
epidermal and dermal thickness (histology) [6, 12]: significantly decreased
immune cell infiltration into the skin (mast cells, Ly6g+ neutrophils, CD4+ T-cells) [6, 12]: significantly suppressed
total number of cells within histological sections [6, 12]: significantly reduced
reduction of ear thickness ([6]; topically delivered, summary of 1 and 2.5 nmol MC903 experiments): 50-54%
alleviation of AD-like inflammation [7]: dose-dependent improvement
accumulation in the skin relative to plasma [8]: approximately 100,000 fold
Cmax [9]: 46 nM
toxicity in stimulated NHEKs [10]: 3-6%
tolerability of oral treatment [11]: well-tolerated

C[C@@H]1C[C@H]2[C@@H]3CCC4=CC(=O)C=C[C@]4(C)[C@@]3(F)[C@@H](O)C[C@]2(C)[C@@]1(O)C(=O)CO [dexamethasone, reference compound]
body weight loss [6]: lost significantly more weight than Compound I-treated mice
